What was measured:
Plasmodium falciparum [1] = assay: microbe, parasite or virus in culture; settings: HB3, 72 h
Description: Growth inhibition of Plasmodium falciparum HB3 ring stage in infected erythrocytes after 72 hrs in DAPI fluorimetry

Plasmodium falciparum [2] = assay: microbe, parasite or virus in culture; settings: 3D7, 72 h
Description: Growth inhibition of Plasmodium falciparum 3D7 ring stage in infected erythrocytes after 72 hrs in DAPI fluorimetry

Plasmodium falciparum [3] = assay: (§1) Growth inhibition of Plasmodium falciparum ring stage in infected erythrocytes by DAPI growth assay; format: functional, organism-based
Plasmodium falciparum [4] = assay: Growth inhibition of Plasmodium falciparum as reduced [3H]hypoxanthine incorporation; format: functional, organism-based
Plasmodium falciparum [5] = assay: microbe, parasite or virus in culture; settings: Dd2, 72 h
Description: Growth inhibition of Plasmodium falciparum Dd2 ring stage infected erythrocytes after 72 hrs by DAPI fluorimetry

Plasmodium falciparum [6] = assay: as §1; format: functional, organism-based; remark: listed apart in the source

## C[C@@H]1CC[C@H]2[C@@H](C)C(=O)O[C@@H]3O[C@@]4(C)CC[C@@H]1[C@]32OO4 [ARTEMISININ]
Plasmodium falciparum [1]
  IC50: 9.7 nM
Plasmodium falciparum [2]
  IC50: 10.8 nM
Plasmodium falciparum [3]
  IC50: 10.8 nM
Plasmodium falciparum [4]
  IC50: 10.1 nM
Plasmodium falciparum [5]
  IC50: 12.3 nM
Plasmodium falciparum [6]
  IC50: 9.67 nM

## O=C1C(O)=C([C@H]2CC[C@H](c3ccc(Cl)cc3)CC2)C(=O)c2ccccc21 [ATOVAQUONE]
Plasmodium falciparum [3]
  IC50: 0.66 nM
Plasmodium falciparum [4]
  IC50: 0.61 nM
Plasmodium falciparum [6]
  IC50: 0.63 nM

## OC(c1cc(C(F)(F)F)nc2c(C(F)(F)F)cccc12)C1CCCCN1 (stereo not drawn) [MEFLOQUINE]
Plasmodium falciparum [1]
  IC50: 9.63 nM
Plasmodium falciparum [2]
  IC50: 12.3 nM
Plasmodium falciparum [5]
  IC50: 26 nM

## CCc1nc(N)nc(N)c1-c1ccc(Cl)cc1 [PYRIMETHAMINE]
Plasmodium falciparum [1]
  IC50: 49.9 nM
Plasmodium falciparum [2]
  IC50: 10 nM
Plasmodium falciparum [5]
  IC50: 44.1 nM

## C=C[C@H]1CN2CC[C@H]1C[C@H]2[C@H](O)c1ccnc2ccc(OC)cc12 [QUININE]
Plasmodium falciparum [3]
  IC50: 66.5 nM
Plasmodium falciparum [4]
  IC50: 62.8 nM
Plasmodium falciparum [6]
  IC50: 69.2 nM
